These are literature values, as cited in patent publication US12213962B2, “Drug resistant immunotherapy for treatment of a cancer” (Emory University, priority 2009, dated 2025).

SMILES strings stand for the structures.

The data set concerns AG104 sarcoma cells. To be noted: mice transplanted with non-modified, TMTX-sensitive cells.

On to `COc1cc(NCc2ccc3nc(N)nc(N)c3c2C)cc(OC)c1OC` [TMTX, trimetrexate], for which the “effect on efficacy of anti-CD137 antibody” value was “reduced the efficacy”.
